The values below come from patent US12622898B2, “Methods and compositions for improving bone marrow hematopoietic functions” (SUN YAT-SEN UNIVERSITY, priority 2019, dated 2026).

The subject of series [1] is HSPCs from Sphk2 deficient mice. Description: DCA treatment of Sphk2 deficient and control mice. Type of series: in vivo, mouse. To be noted: Sphk2 deficient mice treated for 14 days, vs vehicle treated littermates. An excerpt: B6N.129S6-Sphk1tm1Rlp/J (Sphk1Δ/Δ) and B6N.129S6-Sphk2tm1Rlp/J (Sphk2Δ/Δ) mice were obtained from the Jackson Laboratory. To achieve tissue-specific deletion of Sphk2, the Sphk2^flox/flox mice were crossed with Vav-Cre transgenic mice. Sphk2^flox/flox mice was constructed by Cyagen Biosciences Inc. Briefly, linearized targeting vector was electroporated into embryonic stem (ES) cells and positive clones were identified by Southern blotting and injected into C57BL/6 blastocysts followed by chimera production to obtain germline transmission. The Frt-flanked Neo cassette was subsequently removed by mating with Flpe mice. 2-month-old mice or more than 20-month old for aging we used as indicated. 5 FU (Sigma-Aldrich) was injected once or once a week for survival curve as indicated in the tail vein at 150 μg/g body weight. Sphk2 inhibitor ABC294640 (Target Molecule Corp T6750) and PDK inhibitor Sodium dichloroacetate (DCA) (Selleck Chemicals S8615) were intraperitoneal injected at 25 mg/kg. […] Animals were randomly included in the experiments according to genotyping results as a mix of male and female. All animal experiments were performed according to protocols approved by the institutional animal care and use committee.
For phenotype analysis and hematopoietic purification, hematopoietic cells were harvested from bone marrow (femur and tibia). For cell surface phenotyping, a lineage cocktail (Lin, phycoerythrin (PE)-Cy5) was used, including anti-CD3 (145-2C11), anti-CD4 (RM4-5), anti-CD8 (53-6.7), anti-Mac-1 (M1/70), anti-Gr1 (RB6-8C5), anti-B220 (RA3-6B2), anti-IgM (11/41) and anti-TER119 (TER-119) (100 ng antibody cocktail per million bone marrow cells, Biolegend). Monoclonal antibodies to SCA1 (D7, Biolegend), c-KIT (2B8, Biolegend), FLK2 (A2F10, Biolegend), CD34 (RAM34, eBioscience), CD48 (HM48-1, Biolegend), CD41 (MWReg30, eBioscience), CD150 (TC15-12F12.2, BioLegend), CD16/32 (93, Biolegend), IL-7R (A7R34, Biolegend) (all used as 50 ng per million bone marrow cells) were also used where indicated. […]

The test system of series [2] is Pdk3. The experiment in a line: Knock-down of Pdk3 in HSCs by siRNA. Type of series: cell-based, mouse. As for the experimental part:
Bone marrow cells were diluted to the indicated concentration in PBS and were seeded into methylcellulose medium M3434 (StemCell Technologies) for CFU-GM, CFU-GEMM, and BFU-E colony formation assays according to the manufacturer's
The same number of cells from each population to be analyzed were sorted into PBS with 2% FBS. The cells then were washed with PBS and Lysised by RIPA. Equal amounts of protein extracts were fractionated by 12.5% SDS-PAGE and transferred to a PVDF membrane (IPVH00010, Merck Millipore). After blocked with 5% non-fat milk in Tris-buffered saline with Tween-20 (TBST, pH 7.6) for 1 h at room temperature, the membranes were incubated with primary antibodies anti-phospho-PDHE1-A type I (Ser293) (rabbit, 1:1000, ABS204, Merck Millipore), anti-Sphk2 (rabbit, 1:1000, 17096, Proteintech), anti-PDK3 (rabbit, 1:1000, 4970s, Proteintech), or anti-βactin (rabbit, 1:1000, 2118, Cell Signaling Technology), or with primary antibodies anti-PDK3 (rabbit, 1:1000, 12215, Proteintech), anti-β-actin (rabbit, 1:1000, 4970s, Cell Signaling Technology), overnight at 4° C. and then incubated with secondary antibodies (rabbit, 1:10,000, W401B, Promega) for 1 h at room temperature, which was detected by exposure to x-ray film, or by digital imaging with a charge-coupled device camera system (Odyssey Fc). The images shown are representative of images from at least three experiments. […]

Series [3] has as its system Pdk3 expression in HSPCs. Description: Pdk3 mRNA levels and immunoblotting in HSCs treated with inhibitors. Type of series: cell-based, mouse. As for the experimental part: The same number of cells from each population to be analyzed were sorted into PBS with 2% FBS. The cells then were washed with PBS and Lysised by RIPA. Equal amounts of protein extracts were fractionated by 12.5% SDS-PAGE and transferred to a PVDF membrane (IPVH00010, Merck Millipore). After blocked with 5% non-fat milk in Tris-buffered saline with Tween-20 (TBST, pH 7.6) for 1 h at room temperature, the membranes were incubated with primary antibodies anti-phospho-PDHE1-A type I (Ser293) (rabbit, 1:1000, ABS204, Merck Millipore), anti-Sphk2 (rabbit, 1:1000, 17096, Proteintech), anti-PDK3 (rabbit, 1:1000, 4970s, Proteintech), or anti-βactin (rabbit, 1:1000, 2118, Cell Signaling Technology), or with primary antibodies anti-PDK3 (rabbit, 1:1000, 12215, Proteintech), anti-β-actin (rabbit, 1:1000, 4970s, Cell Signaling Technology), overnight at 4° C. and then incubated with secondary antibodies (rabbit, 1:10,000, W401B, Promega) for 1 h at room temperature, which was detected by exposure to x-ray film, or by digital imaging with a charge-coupled device camera system (Odyssey Fc). The images shown are representative of images from at least three experiments.

Consider `O=C([O-])C(Cl)Cl.[Na+]` [DCA, Sodium dichloroacetate], for which the HSPC numbers result in series [1] (25 mg/kg intraperitoneal) is given as “reduced HSPC numbers”. Besides, in series [1], the HSC quiescence entry is reported as “compromised HSC quiescence” and the “ROS levels in HSPCs” value is recorded as “increased ROS levels”.

On to “siRNA: siRNAs (GGACCTGCATCATGAACAATG, SEQ ID NO. 1) against mouse Pdk3 cloned into lentivirus pLKO.1-puro vector”, for which the “HSPC activity (myeloerythroid-colony-forming progenitors)” value in series [2] (Sphk2 deficient HSCs) is “compromised”. The PDH-E1α phosphorylation entry in series [2] (control and Sphk2 deficient HSCs, immunoblotting) is “reduced”.

Turning to `CCCCCCCCc1ccc(CCC(N)(CO)CO)cc1` [FTY720], the “Pdk3 expression in HSPCs” value in series [3] is “not”.
